Test results published in the supplement of paper PMC10307832.

Key:
Test in all cases: relative viability (nuclei count vs DMSO), 5 days (fraction); higher = more cells survive
AZ505 + Palbociclib = compound: C1CCC(CC1)N(CCNCCC2=C3C(=C(C=C2)O)NC(=O)CO3)C(=O)CCNCCC4=CC(=C(C=C4)Cl)Cl [AZ505] + CC(=O)c1c(C)c2cnc(Nc3ccc(N4CCNCC4)cn3)nc2n(C2CCCC2)c1=O [Palbociclib] (partner 0.5 µM)
Outline: (§1)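 One day after seeding in 1536-well plates, lung cancer cell lines were dosed by pin tool. Dosing was either single-drug or a fixed anchor-drug dose plus five library-drug doses (not always all listed) in √10 steps. After 5 days, nuclei were stained in one fix-and-stain step and counted on 4× images, and relative viability is the nuclei count of treated wells over that of vehicle wells, given as the median of duplicate plates.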

Dactolisib + Palbociclib = compound: Cn1c(=O)n(-c2ccc(C(C)(C)C#N)cc2)c2c3cc(-c4cnc5ccccc5c4)ccc3ncc21 [Dactolisib] + CC(=O)c1c(C)c2cnc(Nc3ccc(N4CCNCC4)cn3)nc2n(C2CCCC2)c1=O [Palbociclib] (partner 0.5 µM)
Outline: as §1

AZ505 + AZD7762 = compound: C1CCC(CC1)N(CCNCCC2=C3C(=C(C=C2)O)NC(=O)CO3)C(=O)CCNCCC4=CC(=C(C=C4)Cl)Cl [AZ505] + NC(=O)Nc1cc(-c2cccc(F)c2)sc1C(=O)N[C@H]1CCCNC1 [AZD7762] (partner 0.2 µM)
Outline: as §1

AZ505 + Luminespib = compound: C1CCC(CC1)N(CCNCCC2=C3C(=C(C=C2)O)NC(=O)CO3)C(=O)CCNCCC4=CC(=C(C=C4)Cl)Cl [AZ505] + CCNC(=O)c1noc(-c2cc(C(C)C)c(O)cc2O)c1-c1ccc(CN2CCOCC2)cc1 [Luminespib] (partner 0.01 µM)
Outline: as §1

| Cell Line | relative viability (AZ505 + Palbociclib; first compound 0.08 µM) | relative viability (AZ505 + Palbociclib; first compound 0.253 µM) | relative viability (AZ505 + Palbociclib; first compound 0.8 µM) | relative viability (AZ505 + Palbociclib; first compound 2.53 µM) | relative viability (AZ505 + Palbociclib; first compound 8 µM) | relative viability (Dactolisib + Palbociclib; first compound 0.002 µM) | relative viability (Dactolisib + Palbociclib; first compound 0.006325 µM) | relative viability (Dactolisib + Palbociclib; first compound 0.02 µM) | relative viability (Dactolisib + Palbociclib; first compound 0.06325 µM) | relative viability (Dactolisib + Palbociclib; first compound 0.2 µM) | relative viability (AZ505 + AZD7762; first compound 0.08 µM) | relative viability (AZ505 + AZD7762; first compound 0.253 µM) | relative viability (AZ505 + AZD7762; first compound 0.8 µM) | relative viability (AZ505 + AZD7762; first compound 2.53 µM) | relative viability (AZ505 + AZD7762; first compound 8 µM) | relative viability (AZ505 + Luminespib; first compound 0.08 µM) | relative viability (AZ505 + Luminespib; first compound 0.253 µM) | relative viability (AZ505 + Luminespib; first compound 0.8 µM) | relative viability (AZ505 + Luminespib; first compound 2.53 µM) | relative viability (AZ505 + Luminespib; first compound 8 µM) |
| --- | --- | --- | --- | --- | --- | --- | --- | --- | --- | --- | --- | --- | --- | --- | --- | --- | --- | --- | --- | --- |
| NCI-H1437 | 0.309 | 0.33 | 0.314 | 0.335 | 0.301 | 0.321 | 0.328 | 0.369 | 0.274 | 0.215 | 1.07 | 1.17 | 1.08 | 1.14 | 1.17 | 1.04 | 1.15 | 1.17 | 1.09 | 1.07 |
| COR-L23 | 0.259 | 0.253 | 0.264 | 0.284 | 0.281 | 0.327 | 0.282 | 0.228 | 0.135 | 0.0957 | – | – | – | – | – | 0.54 | 0.771 | 0.611 | 0.613 | 0.706 |
| ABC-1 | 0.469 | – | 0.686 | 0.661 | 0.517 | 0.651 | 0.48 | 0.514 | 0.514 | 0.481 | 0.637 | 0.537 | 0.918 | 0.825 | 0.859 | 0.865 | 0.472 | 0.524 | 0.839 | 0.717 |
| NCI-H522 | 0.91 | 0.946 | 0.891 | 1.04 | 1.16 | 0.924 | 1 | 0.99 | 0.754 | 0.674 | 0.678 | 0.747 | 0.727 | 1.11 | 0.887 | 1.12 | 1.19 | 1.2 | 1.33 | 1.18 |
| NCI-H838 | 0.236 | 0.191 | 0.195 | 0.216 | 0.195 | 0.2 | 0.186 | 0.151 | 0.142 | 0.117 | 0.888 | 0.955 | 0.936 | 0.951 | 0.985 | 0.413 | 0.251 | 0.253 | 0.287 | 0.424 |
| SW 900 | 0.542 | 0.505 | 0.471 | 0.509 | 0.542 | 0.683 | 0.46 | 0.45 | 0.248 | 0.199 | 0.576 | 0.295 | 0.611 | 0.569 | 0.75 | 0.193 | 0.183 | 0.137 | 0.195 | 0.167 |
| A-427 | 0.529 | 0.526 | 0.499 | 0.512 | 0.527 | 0.547 | 0.529 | 0.498 | 0.428 | 0.401 | 0.695 | 0.618 | 0.705 | 0.715 | 0.647 | 0.708 | 1.02 | 0.789 | 1.01 | 1.38 |
| NCI-H1792 | 0.642 | – | 0.619 | 0.612 | 0.696 | 0.676 | 0.651 | 0.568 | 0.34 | 0.271 | 0.627 | 0.247 | 0.544 | 0.642 | 0.833 | 0.359 | – | 0.452 | 0.478 | 0.404 |
| NCI-H1703 | – | – | – | – | – | – | – | – | – | – | 0.106 | – | 0.12 | 0.114 | 0.134 | – | – | – | – | – |
| SW 1573 | 0.342 | 0.393 | 0.389 | 0.441 | 0.4 | 0.395 | 0.324 | 0.225 | 0.154 | 0.116 | – | – | – | – | – | 0.165 | 0.257 | 0.427 | 0.0963 | 0.277 |
| COR-L 105 | 0.399 | 0.405 | 0.369 | 0.406 | 0.399 | 0.393 | 0.375 | 0.432 | 0.392 | 0.31 | – | – | – | – | – | 0.739 | 0.707 | 0.765 | 0.831 | 0.905 |
| HCC-366 | 0.361 | 0.491 | 0.326 | 0.402 | 0.384 | 0.402 | 0.349 | 0.232 | 0.102 | 0.0378 | 0.357 | 0.215 | 0.281 | 0.151 | 0.247 | – | – | – | – | – |
| NCI-H1648 | – | 0.264 | 0.305 | 0.284 | 0.27 | 0.284 | 0.283 | 0.231 | 0.206 | 0.215 | – | 0.755 | 0.921 | 0.818 | 0.825 | – | – | – | – | – |
| NCI-H596 | – | – | – | – | – | – | – | – | – | – | 1.18 | – | 1.02 | 1.04 | 0.916 | 0.928 | 0.917 | 0.976 | 0.992 | 0.965 |
| NCI-H2228 | 0.554 | 0.723 | 0.69 | 0.768 | 0.918 | 0.882 | 0.725 | 0.638 | 0.197 | 0.147 | – | – | – | – | – | 0.114 | 0.182 | 0.145 | 0.138 | 0.14 |
| SK-MES-1 | 0.31 | 0.316 | 0.26 | 0.294 | 0.32 | 0.297 | 0.298 | 0.269 | 0.247 | 0.214 | – | – | – | – | – | 0.511 | 0.77 | 0.758 | 0.643 | 0.768 |
| NCI-H661 | 0.404 | 0.433 | 0.402 | 0.422 | 0.372 | 0.415 | 0.379 | 0.368 | 0.342 | 0.332 | – | – | – | – | – | 0.879 | 0.928 | 0.909 | 0.914 | 0.928 |
| NCI-H520 | 0.229 | 0.235 | 0.201 | 0.263 | 0.237 | 0.206 | 0.178 | 0.163 | 0.153 | 0.117 | – | – | – | – | – | 0.232 | 0.186 | 0.312 | 0.239 | 0.211 |
| NCI-H2023 | 0.368 | 0.405 | 0.345 | 0.365 | 0.345 | 0.395 | 0.297 | 0.274 | 0.106 | 0.0901 | – | – | – | – | – | 0.727 | 0.873 | 0.712 | 0.83 | 0.968 |
| NCI-H2009 | 0.191 | 0.203 | 0.174 | 0.153 | 0.235 | 0.235 | 0.202 | 0.235 | 0.153 | 0.118 | – | – | – | – | – | 0.847 | 1.08 | 1.02 | 0.956 | 0.962 |
